Experimental data as given in patent publication US20250304623A1, “PEPTIDES FOR INTRACELLULAR DELIVERY” (UNIVERSIDADE DE SANTIAGO DE COMPOSTELA, priority 2022, published 2025).

Columns and labels:
Assay type in all cases: cell-based
[1] = test system: A549 cells expressing EGFP; assay: EGFP-targeting siRNA delivery (GFP silencing vs siMOCK), A549; conditions: for siRNA % fluorescence reduction vs siMOCK: A549, amphiphile 5 μM, hydrophobic tail; for percentage of GFP-silencing relative to siMOCK: A549 cells
[2] = test system: ARPE19 cells expressing EGFP; assay: EGFP-targeting siRNA delivery (GFP silencing vs siMOCK), ARPE19
How it was run: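 This siRNA delivery assay used stably EGFP-expressing cells seeded a day ahead in 96-well plates. siGFP and amphiphile were combined in DMEM at a constant 30 nM siRNA, incubated 30 min at room temperature, then applied for 4 h before switching to fresh DMEM with 10% FBS. After 72 h, a plate reader measured fluorescence decrease relative to non-targeting siMOCK, subtracting untreated background.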

[3] = test system: HepG2 cells expressing EGFP; assay: EGFP-targeting siRNA delivery (GFP silencing vs siMOCK), HepG2
How it was run: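 After 72 h, a plate reader measured EGFP fluorescence in HepG2 EGFP cells transfected with amphiphile/siRNA complexes (30 nM siGFP). Silencing was expressed as percent fluorescence decrease relative to cells given non-targeting siMOCK, with untreated-cell background subtracted. Triplicate means were reported, and Lipofectamine RNAiMAX served as a comparison.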

HCT116 cells = assay: RLuc pDNA delivery, robotic library screening, HCT116
[4] = test system: ARPE19 cells expressing EGFP; assay: Cas9-RNP delivery against EGFP (gene editing, plate reader), ARPE19
How it was run: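 EGFP-expressing cells, generated by stable transfection with EGFP pDNA and G-418 selection, were plated in 96-well plates at 50,000 cell/mL (100 μL/w) in DMEM+10% FBS+1% Gln-Abt. Cas9-RNP targeting EGFP was complexed with amphiphile for 30 min, applied for 4 h at 50 nM RNP, and EGFP fluorescence was read on a plate reader after 72 h.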

[5] = test system: HepG2 cells expressing EGFP; assay: Cas9-RNP delivery against EGFP (gene editing, plate reader), HepG2
How it was run: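 Gene editing in EGFP-expressing HepG2 cells was estimated as the percentage drop in GFP fluorescence, measured in triplicate on a plate reader 72 h after Cas9-RNP delivery with amphiphiles. The RNP was made from annealed crRNA/tracrRNA plus 4 μM Cas9 and complexed with amphiphile before a 4 h exposure. Background from untreated control cells was subtracted.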

ARPE19 cells = assay: RLuc pDNA delivery, robotic library screening, ARPE19

Ac-RRLK*RLK*RRLK*RL-NH2 [Peptide 13.3]
siRNA % fluorescence reduction vs siMOCK ([1]; dodecanal hydrophobic tail): 58% | siRNA % fluorescence reduction vs siMOCK ([1]; myristoleyl hydrophobic tail): 57% | siRNA % fluorescence reduction vs siMOCK ([1]; palmitoleyl hydrophobic tail): 60% | percentage of GFP-silencing relative to siMOCK ([1]; Dodecanal, 5 μM): 59% | percentage of GFP-silencing relative to siMOCK ([1]; Dodecanal, 10 μM): 54% | percentage of GFP-silencing relative to siMOCK ([1]; Dodecanal, 15 μM): 46% | percentage of GFP-silencing relative to siMOCK ([1]; Myristoleyl, 5 μM): 57% | percentage of GFP-silencing relative to siMOCK ([1]; Myristoleyl, 10 μM): 25% | percentage of GFP-silencing relative to siMOCK ([1]; Myristoleyl, 15 μM): 28% | percentage of GFP-silencing relative to siMOCK ([1]; Oleyl, 10 μM): 14% | percentage of GFP-silencing relative to siMOCK ([1]; Oleyl, 15 μM): 4% | percentage of GFP-silencing relative to siMOCK ([1]; Palmitoleyl, 5 μM): 60% | percentage of GFP-silencing relative to siMOCK ([1]; Palmitoleyl, 10 μM): 37% | percentage of GFP-silencing relative to siMOCK ([1]; Palmitoleyl, 15 μM): 29% | percentage of GFP-silencing relative to siMOCK ([1]; Petroselinyl, 5 μM): 31% | percentage of GFP-silencing relative to siMOCK ([1]; Petroselinyl, 10 μM): 53% | percentage of GFP-silencing relative to siMOCK ([1]; Petroselinyl, 15 μM): 59% | percentage of GFP-silencing relative to siMOCK ([2]; Dodecanal, 5 μM): 29% | percentage of GFP-silencing relative to siMOCK ([2]; Dodecanal, 10 μM): 51% | percentage of GFP-silencing relative to siMOCK ([2]; Dodecanal, 15 μM): 37% | percentage of GFP-silencing relative to siMOCK ([2]; Palmitoleyl, 10 μM): 11% | percentage of GFP-silencing relative to siMOCK ([2]; Petroselinyl, 5 μM): 11% | percentage of GFP-silencing relative to siMOCK ([2]; Petroselinyl, 10 μM): 13% | percentage of GFP-silencing relative to siMOCK ([2]; Petroselinyl, 15 μM): −42% | percentage of GFP-silencing relative to siMOCK ([3]; Dodecanal, 10 μM): 31% | percentage of GFP-silencing relative to siMOCK ([3]; Dodecanal, 15 μM): 33% | percentage of GFP-silencing relative to siMOCK ([3]; Myristoleyl, 5 μM): 13% | percentage of GFP-silencing relative to siMOCK ([3]; Myristoleyl, 10 μM): 20% | percentage of GFP-silencing relative to siMOCK ([3]; Palmitoleyl, 5 μM): 19% | percentage of GFP-silencing relative to siMOCK ([3]; Palmitoleyl, 10 μM): 46% | percentage of GFP-silencing relative to siMOCK ([3]; Palmitoleyl, 15 μM): 10% | percentage of GFP-silencing relative to siMOCK ([3]; Petroselinyl, 5 μM): 9% | percentage of GFP-silencing relative to siMOCK ([3]; Petroselinyl, 10 μM): 41% | percentage of GFP-silencing relative to siMOCK ([3]; Petroselinyl, 15 μM): 8% | mean luminescent intensity (RLuc pDNA) (HCT116 cells; Dodecanal, 5 μM): 60338 RLU | mean luminescent intensity (RLuc pDNA) (HCT116 cells; Dodecanal, 10 μM): 4741 RLU | mean luminescent intensity (RLuc pDNA) (HCT116 cells; Myristoleyl, 5 μM): 51434 RLU | mean luminescent intensity (RLuc pDNA) (HCT116 cells; Myristoleyl, 10 μM): 32315 RLU | mean luminescent intensity (RLuc pDNA) (HCT116 cells; Myristoleyl, 15 μM): 3431 RLU | mean luminescent intensity (RLuc pDNA) (HCT116 cells; Oleyl, 15 μM): 1949 RLU | mean luminescent intensity (RLuc pDNA) (HCT116 cells; Palmitoleyl, 5 μM): 142094 RLU | mean luminescent intensity (RLuc pDNA) (HCT116 cells; Palmitoleyl, 15 μM): 17328 RLU | mean luminescent intensity (RLuc pDNA) (HCT116 cells; Petroselinyl, 5 μM): 14318 RLU | mean luminescent intensity (RLuc pDNA) (HCT116 cells; Petroselinyl, 10 μM): 99695 RLU | mean luminescent intensity (RLuc pDNA) (HCT116 cells; Petroselinyl, 15 μM): 36052 RLU | percentage of gene editing, GFP fluorescence intensity decrease (% of reduction) ([4]; Dodecanal, 10 μM): 13% | percentage of gene editing, GFP fluorescence intensity decrease (% of reduction) ([4]; Dodecanal, 15 μM): 18% | percentage of gene editing, GFP fluorescence intensity decrease (% of reduction) ([4]; Myristoleyl, 10 μM): 32% | percentage of gene editing, GFP fluorescence intensity decrease (% of reduction) ([4]; Myristoleyl, 15 μM): 38% | percentage of gene editing, GFP fluorescence intensity decrease (% of reduction) ([4]; Oleyl, 5 μM): 20% | percentage of gene editing, GFP fluorescence intensity decrease (% of reduction) ([4]; Petroselinyl, 15 μM): −11% | percentage of gene editing, GFP fluorescence intensity decrease (% of reduction) ([5]; Dodecanal, 5 μM): −27% | percentage of gene editing, GFP fluorescence intensity decrease (% of reduction) ([5]; Dodecanal, 10 μM): −11% | percentage of gene editing, GFP fluorescence intensity decrease (% of reduction) ([5]; Myristoleyl, 5 μM): −22% | percentage of gene editing, GFP fluorescence intensity decrease (% of reduction) ([5]; Myristoleyl, 10 μM): 3% | percentage of gene editing, GFP fluorescence intensity decrease (% of reduction) ([5]; Palmitoleyl, 5 μM): −30% | percentage of gene editing, GFP fluorescence intensity decrease (% of reduction) ([5]; Palmitoleyl, 10 μM): −19% | percentage of gene editing, GFP fluorescence intensity decrease (% of reduction) ([5]; Petroselinyl, 5 μM): −20% | mean luminescent intensity (RLuc pDNA) (ARPE19 cells; Dodecanal, 5 μM): 2557 RLU | mean luminescent intensity (RLuc pDNA) (ARPE19 cells; Myristoleyl, 5 μM): 6819 RLU | mean luminescent intensity (RLuc pDNA) (ARPE19 cells; Myristoleyl, 10 μM): 3064 RLU | mean luminescent intensity (RLuc pDNA) (ARPE19 cells; Myristoleyl, 15 μM): −316 RLU | mean luminescent intensity (RLuc pDNA) (ARPE19 cells; Oleyl, 5 μM): 1946 RLU | mean luminescent intensity (RLuc pDNA) (ARPE19 cells; Oleyl, 10 μM): 957 RLU | mean luminescent intensity (RLuc pDNA) (ARPE19 cells; Oleyl, 15 μM): 1379 RLU | mean luminescent intensity (RLuc pDNA) (ARPE19 cells; Palmitoleyl, 5 μM): 13194 RLU | mean luminescent intensity (RLuc pDNA) (ARPE19 cells; Petroselinyl, 5 μM): 1458 RLU | mean luminescent intensity (RLuc pDNA) (ARPE19 cells; Petroselinyl, 10 μM): 35316 RLU | mean luminescent intensity (RLuc pDNA) (ARPE19 cells; Petroselinyl, 15 μM): 5730 RLU
